The experiment addresses T1, human IsK protein (Homo sapiens, UniProt P15382).
T1 construct: only IsK injected, pore from oocyte's endogenous KCNQ1; two-microelectrode voltage clamp
Nature of the experiment: Inhibition of IsK current in Xenopus oocytes expressing human IsK protein (two-microelectrode voltage-clamp). It counts as cell-based. The following applies: human IsK expressed in Xenopus oocytes; activated to -10 mV, 15 s voltage jumps, room temperature; Hill equation.

T1 sequence (P70057 whole entry partner): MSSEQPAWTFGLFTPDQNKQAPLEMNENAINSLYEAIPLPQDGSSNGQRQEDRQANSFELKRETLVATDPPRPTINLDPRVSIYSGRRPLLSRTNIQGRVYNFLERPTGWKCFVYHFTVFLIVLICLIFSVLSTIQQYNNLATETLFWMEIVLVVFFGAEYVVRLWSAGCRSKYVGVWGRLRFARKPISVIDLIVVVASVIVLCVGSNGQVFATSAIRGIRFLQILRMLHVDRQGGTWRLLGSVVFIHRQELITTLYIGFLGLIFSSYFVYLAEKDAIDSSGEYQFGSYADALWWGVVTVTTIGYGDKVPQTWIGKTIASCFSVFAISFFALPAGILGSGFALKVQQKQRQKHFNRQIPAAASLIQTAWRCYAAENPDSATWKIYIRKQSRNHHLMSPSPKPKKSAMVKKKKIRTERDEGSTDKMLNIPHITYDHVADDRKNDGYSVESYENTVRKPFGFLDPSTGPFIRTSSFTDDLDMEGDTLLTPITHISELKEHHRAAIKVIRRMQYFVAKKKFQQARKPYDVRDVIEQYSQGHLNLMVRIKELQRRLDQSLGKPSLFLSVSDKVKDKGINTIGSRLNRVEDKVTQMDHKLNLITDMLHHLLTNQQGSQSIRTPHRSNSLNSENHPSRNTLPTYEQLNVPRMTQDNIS

In the case of `CCCN(C1CC(C)(C)Oc2ccc(OCC(=O)NCCCOCC)cc21)S(=O)(=O)CC` (stereo not drawn) [Example 23, 2-[4-(Ethanesulfonyl-(1-propyl)amino)-2,2-dimethylchroman-6-yloxy]-N-(3-ethoxypropyl)acetamide], the IC50 was found to be 2490 nM.

Regarding `CCOCCCOc1ccc2c(c1)C(N(CCOC)S(C)(=O)=O)CC(C)(C)O2` (stereo not drawn) [Example 21, N-[6-(3-Ethoxypropoxy)-2,2-dimethylchroman-4-yl]-N-(2-methoxyethyl)methanesulfonamide], half-maximal inhibition (IC50) required 1740 nM. `CCCN(C1CC(C)(C)Oc2ccc(OCC(=O)NCCOC)cc21)S(=O)(=O)CC` (stereo not drawn) [Example 22, 2-[4-(Ethanesulfonyl-(1-propyl)amino)-2,2-dimethylchroman-6-yloxy]-N-(2-methoxyethyl)acetamide]: the IC50 was ~3000 nM. `CCOCCCOc1ccc2c(c1)C(N(C)S(C)(=O)=O)CC(C)(C)O2` (stereo not drawn) [Example 15, N-[6-(3-Ethoxypropoxy)-2,2-dimethylchroman-4-yl]-N-methylmethanesulfonamide] registered an IC50 of 320 nM. `CCN(C1CC(C)(C)Oc2ccc(OCc3cc(OC)ccn3)cc21)S(C)(=O)=O` (stereo not drawn) [Example 10, N-Ethyl--N-[6-(((4-methoxypyridin-2-yl)methyl)oxy)-2,2-dimethylchroman-4-yl]methanesulfonamide]: the IC50 is ~8000 nM. The result for `CCOCCCOc1ccc2c(c1)C(N(CC)S(C)(=O)=O)CC(C)(C)O2` (stereo not drawn) [Example 1, N-[6-(3-Ethoxypropoxy)-2,2-dimethylchroman-4-yl]-N-ethyl-methanesulfonamide] reads 430 nM. For `CCS(=O)(=O)N(C)C1CC(C)(C)Oc2ccc(-c3cccs3)cc21` (stereo not drawn) [Example 26, Ethanesulfonic acid (2,2-dimethyl-6-thiophen-2-yl-chroman-4-yl)methylamide], inhibition was half-maximal at 380 nM (IC50).

`CCN(C1CC(C)(C)Oc2ccc(OCCCCCO)cc21)S(C)(=O)=O` (stereo not drawn) [Example 2, N-Ethyl-N-[6-(5-hydroxypentyloxy)-2,2-dimethylchroman-4-yl]methanesulfonamide] showed an IC50 of 1710 nM.

With `CCOCCOc1ccc2c(c1)C(N(CCOC)S(C)(=O)=O)CC(C)(C)O2` (stereo not drawn) [Example 17, N-[6-(2-Ethoxyethoxy)-2,2-dimethylchroman-4-yl]-N-(2-methoxyethyl)methanesulfonamide], the IC50 was ~1000 nM.

On to `CCOCCOc1ccc2c(c1)C(N(CC)S(C)(=O)=O)CC(C)(C)O2` (stereo not drawn) [Example 9, N-[6-(2-Ethoxyethoxy)-2,2-dimethylchroman-4-yl]-N-ethylmethanesulfonamide], for which it took 690 nM to reach half-maximal inhibition (IC50). Take `CCN(C1CC(C)(C)Oc2ccc(OCCCCC(=O)NCCOC)cc21)S(C)(=O)=O` (stereo not drawn) [Example 3, 5-[4-(Ethylmethanesulfonylamino)-2,2-dimethylchroman-6-yloxy]pentanoic acid (2-methoxyethyl)amide]: half-maximal inhibition (IC50) required 6360 nM.

For `CCN(C1CC(C)(C)Oc2ccc(OCCO)cc21)S(C)(=O)=O` (stereo not drawn) [Example 8, N-Ethyl-N-[6-(2-hydroxyethoxy)-2,2-dimethylchroman-4-yi]-methanesulfonamide], 7430 nM corresponded to half-maximal inhibition (IC50). This IC50 and that of the compound before are within 1.5-fold of each other.

These data come from patent US6177449A, “Sulfonamide-substituted chromans, processes for their preparation, their use as a medicament or diagnostic, and pharmaceutical preparations comprising them” (Aventis Pharma Deutschland GmbH, priority 1997, dated 2001).
